tested on: human cardiac fibroblasts; experiment: Cell-based inhibition assay of generation of procollagen I C-terminal propeptide (PICP), PICP ELISA; conditions: Cardiac fibroblast; human cardiac fibroblasts, crowding media, 24 to 48 hr, PICP ELISA of media; read-out: pIC50, PICP cellular inhibition assay (converted)
Protocol: Cell-Based Inhibition Assay of Generation of Procollagen I C-Terminal Propeptide (PICP) and Mature Collagen:
An adaptation of the collagen deposition assay described by Chen, C. Z. C., et al., British Journal of Pharmacology, 2009, 158, 1196-1209 was used to examine effect of compounds on procollagen I processing and collagen deposition. In the adapted assay, human cardiac fibroblasts were utilized. Processing of procollagen I was determined by a PICP ELISA assay and deposition of mature collagen was determined by immunostaining.
Human cardiac fibroblasts were cultured and maintained until passage 6 in FGM-3 media (Lonza, #CC-3132) in a 37° C. humidified incubator with 5% CO2. They were then seeded in 96-well black wall, clear bottom plates at 10,000 to 15,000 cells per well in eagle's minimum essential media (EMEM, ATCC #30-2003) containing 10% fetal bovine serum (FBS, Life Technologies #10082147), 1% Glutamax (Life Technologies #35050061) and 1% Penicillin and Streptomycin (Life Technologies #15070063). These cultures were placed in 37° C. incubator. The next day, media were removed by aspiration and cells were rinsed with phosphate buffered saline. Crowding media (also called ficoll media) was prepared by adding 112.5 mg/ml of ficoll70 and 75 mg/ml ficoll400 (GE healthcare #17-0310-10 and 17-0300-10, respectively), 100 μM ascorbic acid, 1% Glutamax and 1% Penicillin and Streptomycin to EMEM media. Test compounds (dissolved in DMSO) were diluted into crowding media and then added to the cells. Final concentration of DMSO in crowding media was less than 0.3%. Cells were treated for 24 to 48 hr in a 37° C. incubator. At the end of the treatment period, cell media were collected. The level of PICP in the media were determined by a PICP ELISA assay (Quidel #8003) following the manufacturer's protocol. Potencies of test compounds were calculated by fitting PICP levels, relative to untreated controls, to log (inhibitor) vs. response equation using Graphpad Prism software 5.0 and expressed as pIC50.

SMILES | IC50 [µM]
CCCCC[C@@H](C(=O)NCNC(=O)c1ccc(-c2ccc(C(=O)N(CC(=O)O)CC(=O)O)cc2)o1)[C@@H](CC)N(O)C=O [Example 136, 2,2′-((4-(5-((((R)-2-((R)-1-(N-hydroxyformamido)propyl)heptanamido)methyl)carbamoyl)furan-2-yl)benzoyl)azanediyl)diacetic acid] | < 3.98
CCCCC[C@@H](C(=O)NCNC(=O)c1ccc(-c2cc(OCC)cc(C(=O)N[C@@H](CCC(=O)O)C(=O)OC(C)(C)C)c2)o1)[C@@H](CC)N(O)C=O [Example 45, (S)-5-(tert-butoxy)-4-(3-ethoxy-5-(5-((((R)-2-((R)-1-(N-hydroxyformamido)propyl)heptanamido)methyl)carbamoyl)furan-2-yl)benzamido)-5-oxopentanoic acid] | < 3.98
CCCCC[C@@H](C(=O)NCNC(=O)c1ccc(-c2cc(OCC)cc(C(=O)NC(CO)(CO)CO)c2)o1)[C@@H](CC)N(O)C=O [Example 88, 5-(3-((1,3-dihydroxy-2-(hydroxymethyl)propan-2-yl)carbamoyl)-5-ethoxyphenyl)-N—(((R)-2-((R)-1-(N-hydroxyformamido)propyl)heptanamido)methyl)furan-2-carboxamide] | < 3.98
CCCCC[C@H](CN(O)C=O)C(=O)NCNC(=O)c1ccc(-c2ccc(C(=O)O)cc2)o1 [Example 92, (R)-4-(5-(((2-((N-hydroxyformamido)methyl)heptanamido)methyl)carbamoyl)furan-2-yl)benzoic acid] | < 3.98
CCCCC[C@H](CN(O)C=O)C(=O)NCNC(=O)c1ccc(-c2cccc(S(=O)(=O)NC)c2)o1 [Example 22, (R)-N-((2-((N-hydroxyformamido)methyl)heptanamido)methyl)-5-(3-(N-methylsulfamoyl)phenyl) furan-2-carboxamide] | < 3.98
CCCCC[C@H](CN(O)C=O)C(=O)NCNC(=O)c1ccc(-c2cccc(S(=O)(=O)NC(=O)CC)c2)o1 [Example 28, (R)-N-((2-((N-hydroxyformamido)methyl)heptanamido)methyl)-5-(3-(N-propionylsulfamoyl)phenyl)furan-2-carboxamide] | < 3.98
CCCCC[C@@H](C(=O)NCNC(=O)c1ccc(-c2cc(O)cc(OCC)c2)o1)[C@@H](CC)N(O)C=O [Example 73, 5-(3-ethoxy-5-hydroxyphenyl)-N-(((R)-2-((R)-1-(N-hydroxyformamido)propyl)heptanamido)methyl)furan-2-carboxamide] | < 3.98
CC[C@H]([C@@H](CCc1ccc(F)cc1F)C(=O)NCNC(=O)c1ccc(-c2cc(OCC(=O)O)cc(C(=O)O)c2O)o1)N(O)C=O [Example 118, 5-(carboxymethoxy)-3-(5-((((2R,3R)-2-(2,4-difluorophenethyl)-3-(N-hydroxyformamido)pentanamido)methyl)carbamoyl)furan-2-yl)-2-hydroxybenzoic acid] | < 3.98
CCOc1cc(-c2ccc(C(=O)NCNC(=O)[C@H](CCc3ccc4ccccc4c3)[C@@H](CC)N(O)C=O)o2)cc(P(=O)(O)O)c1 [Example 141] | < 3.98
CCCCC[C@@H](C(=O)NCNC(=O)c1ccc(-c2ccc(C(=O)O)c(CC(=O)O)c2)o1)[C@@H](CC)N(O)C=O [Example 114] | < 3.98
CCCCC[C@@H](C(=O)NCNC(=O)c1ccc(-c2cc(OCC(=O)O)cc(C(=O)N[C@@H](CC(=O)O)C(=O)O)c2)o1)[C@@H](CC)N(O)C=O [Example 125, (S)-2-(3-(carboxymethoxy)-5-(5-((((R)-2-((R)-1-(N-hydroxyformamido)propyl)heptanamido)methyl)carbamoyl)furan-2-yl)benzamido) succinic acid] | < 3.98
CCCCC[C@H](CN(O)C=O)C(=O)NCNC(=O)c1ccc(-c2cccc(OC(F)F)c2)o1 [Example 35, (R)-5-(3-(difluoromethoxy)phenyl)-N-((2-((N hydroxyformamido)methyl)heptanamido)methyl) furan-2-carboxamide] | < 3.98
CCCCC[C@H](CN(O)C=O)C(=O)NCNC(=O)c1ccc(-c2ccc(N)c(C(=O)O)c2)o1 [Example 64, (R)-2-amino-5-(5-(((2-((N-hydroxyformamido)methyl)heptanamido)methyl)carbamoyl)furan-2-yl)benzoic acid] | < 3.98
CCCCC[C@@H](C(=O)NCNC(=O)c1ccc(-c2ccc(C(=O)O)c(O)c2)o1)[C@@H](CC)N(O)C=O [Example 146, 2-hydroxy-4-(5-((((R)-2-((R)-1-(N-hydroxyformamido)propyl)heptanamido)methyl)carbamoyl)furan-2-yl)benzoic acid] | < 3.98
CCCCC[C@H](CN(O)C=O)C(=O)NCNC(=O)c1ccc(-c2cc(OCC)cc(C(=O)OC)c2)o1 [Example 26] | < 3.98
CCCCC[C@@H](C(=O)NCNC(=O)c1ccc(-c2ccc(C(=O)N[C@@H](CC(=O)O)C(=O)O)cc2)o1)[C@@H](CC)N(O)C=O [Example 119, (S)-2-(4-(5-((((R)-2-((R)-1-(N-hydroxyformamido)propyl)heptanamido)methyl)carbamoyl)furan-2-yl)benzamido) succinic acid] | < 3.98
CCCCC[C@H](CN(O)C=O)C(=O)NCNC(=O)c1ccc(-c2cc(OCC)cc(C(=O)O)c2)o1 [Example 30, (R)-3-ethoxy-5-(5-(((2-((N-hydroxyformamido)methyl)heptanamido)methyl)carbamoyl)furan-2-yl)benzoic acid] | < 3.98
CCCCC[C@@H](C(=O)NCNC(=O)c1ccc(-c2cc(OCC)cc(C(=O)NCP(=O)(O)O)c2)o1)[C@@H](CC)N(O)C=O [Example 100, ((3-ethoxy-5-(5-((((R)-2-((R)-1-(N-hydroxy-formamido)propyl)heptanamido)methyl)carbamoyl)furan-2-yl)benzamido)methyl) phosphonic acid] | < 3.98
CCCCC[C@H](CN(O)C=O)C(=O)NCNC(=O)c1ccc(-c2cc(OC)cc(C(=O)NCCN)c2)o1 [Example 33, (R)-5-(3-((2-aminoethyl)carbamoyl)-5-methoxyphenyl)-N-((2-((N-hydroxyformamido)methyl)heptanamido)methyl) furan-2-carboxamide] | < 3.98
CCCCC[C@H](CN(O)C=O)C(=O)NCNC(=O)c1ccc(-c2cccc(SCC)c2)o1 [Example 103, (R)-5-(3-(ethylthio)phenyl)-N-((2-((N-hydroxyformamido)methyl)heptanamido)methyl)furan-2-carboxamide] | < 3.98
CCCCC[C@@H](C(=O)NCNC(=O)C1CCC(c2cc(OCC)cc(P(=O)(O)O)c2)O1)[C@@H](CC)N(O)C=O (stereo partly drawn) [Example 97, (3-ethoxy-5-(5-((((R)-2-((R)-1-(N-hydroxyformamido)propyl)heptanamido)methyl)carbamoyl)tetrahydrofuran-2-yl)phenyl)phosphonic acid] | < 3.98
CCCCC[C@H](CN(O)C=O)C(=O)NCNC(=O)c1ccc(-c2cccc(C(=O)O)c2C)o1 [Example 61, (R)-3-(5-(((2-((N-hydroxyformamido)methyl)heptanamido)methyl)carbamoyl)furan-2-yl)-2-methylbenzoic acid] | < 3.98
CCCCC[C@H](CN(O)C=O)C(=O)NCNC(=O)c1ccc(-c2cccc(OCC)c2)o1 [Example 14, (R)-5-(3-ethoxyphenyl)-N-((2-((N-hydroxyformamido)methyl)heptanamido)methyl) furan-2-carboxamide] | < 3.98
CCCCC[C@H](CN(O)C=O)C(=O)NCNC(=O)c1ccc(-c2cccc(OC(F)(F)F)c2)o1 [Example 13, (R)-N-((2-((N-hydroxyformamido)methyl)heptanamido)methyl)-5-(3-(trifluoromethoxy)phenyl) furan-2-carboxamide carboxamide] | < 3.98
CCCCC[C@H](CN(O)C=O)C(=O)NCNC(=O)c1ccc(-c2cccc(CC(=O)O)c2)o1 [Example 60, (R)-2-(3-(5-(((2-((N-hydroxyformamido)methyl)heptanamido)methyl)carbamoyl)furan-2-yl)phenyl)acetic acid] | < 3.98
CCCCC[C@H](CN(O)C=O)C(=O)NCNC(=O)c1ccc(-c2cccc(P(=O)(O)O)c2)o1 [Example 108, (R)-(3-(5-(((2-((N-hydroxyformamido)methyl)heptanamido)methyl)carbamoyl)furan-2-yl)phenyl)phosphonic acid] | < 3.98

same assay, conditions: Homo sapiens, Cardiac fibroblast, read-out: pIC50, PICP cellular inhibition assay (converted)

SMILES | IC50 [µM]
CCCCC[C@@H](C(=O)NCNC(=O)c1ccc(-c2cc(OCC)cc(C(=O)NCC[N+](C)(C)C)c2)o1)[C@@H](CC)N(O)C=O [Example 65, 2-(3-ethoxy-5-(5-((((R)-2-((R)-1-(N-hydroxyformamido)propyl)heptanamido)methyl)carbamoyl)furan-2-yl)benzamido)-N,N,N-trimethylethanaminium hydroxide] | < 3.98
